Data on two compounds can be found in paper PMC12473689, “Drug Metabolism and Pharmacokinetics of Oxazolo[4,5-c]quinoline Analogs as Novel Interleukin-33 Inhibitors” (Pharmaceutics, 2025).

Format in all cases: in vitro ADME
The nature of data set [1]: In vitro metabolic stability in pooled human liver S9 fraction. The following applies: for remaining at 1 h, 3 µM / half-life at 3 µM: pH 7.4, HLS9 1 mg/mL, 3 µM compound; for remaining at 1 h, 3 µM: cofactors NADPH, UDPGA, PAPS, GSH, 37 °C, read-out: % remaining after 60 min; for half-life at 3 µM: with cofactors, one-phase decay fit, read-out: in vitro t½ (estimated); for microsomal CLint at 3 µM: pH 7.4, HLS9, CLint,u = k/(fu,S9 × [S9]), read-out: CLint,u (unbound intrinsic clearance). As to the method: (§1) Metabolic stability was assessed using pooled HLS9 and MLS9 fractions. The S9 fractions (20 mg/mL) were diluted to 1 mg/mL with 0.1 M potassium phosphate buffer (pH 7.4). Stock solutions of KB-1517 and KB-1518 (10 mM in DMSO) were diluted in 50% aqueous acetonitrile to prepare working solutions (120 µM). A Tris mix buffer containing 1 M Tris-HCl (pH 7.4), 10 mM MgCl2, and 125 µg/mL alamethicin was prepared. A combined cofactor solution was prepared in 0.1 M potassium phosphate buffer (pH 7.4): 10 mM NADPH, 5 mM UDPGA, 1 mM PAPS, and 25 mM GSH.
(§2) The incubation mixture (final volume 200 µL) contained: 125 µL of deionized water, 40 µL of Tris mix buffer, 10 µL of 20 mg protein/mL S9 fraction (final concentration 1 mg protein/mL), and 5 µL of the test compound working solution (final concentration 3 µM). The final concentrations of DMSO and acetonitrile were 0.03% and 1%, respectively. The mixture was pre-incubated at 37 °C for 5 min in a shaking water bath. The reaction was initiated by adding 20 µL of the combined cofactor solution (final concentrations: 1 mM NADPH, 0.5 mM UDPGA, 0.1 mM PAPS, 2.5 mM GSH). Control incubations were performed without the cofactor mixture (replaced with buffer) and at 0 min (quenched immediately after adding cofactors). Incubations were carried out at 37 °C for 0, 15, 30, and 60 min (for stability) or 60 min (for metabolite ID). Reactions were terminated by adding 200 µL of ice-cold acetonitrile containing IS (diclofenac).
(§3) Terminated samples were sonicated (5 min), vortexed (1500 rpm, 5 min), and centrifuged (3000 rpm, 20 min, 4 °C). An aliquot (150 µL) of the supernatant was transferred to a 96-well plate for LC-MS/MS analysis as described in Section 2.6.2.
(§4) Noncompartmental analysis (NCA) was performed using PKSolver to determine pharmacokinetic parameters from the plasma concentration-time data. Parameters included: maximum plasma concentration (Cmax), time to reach Cmax (tmax), terminal elimination half-life (t1/2), area under the plasma concentration-time curve from time zero to the last measurable concentration (AUClast), area under the plasma concentration-time curve extrapolated to infinity (AUCinf), total body clearance (CL), and volume of distribution at steady state (Vss). Oral bioavailability (F) was calculated as: F(%) = (AUCinf,PO/AUCinf,IV)× (DoseIV/DosePO)×100. Due to the anomalous profile of KB-1517, AUClast was used for its F calculation, and some parameters (t½, CL, Vss for IV; AUCinf for PO) could not be reliably determined (ND). The metabolic rate constant (k) was determined by fitting the in vitro metabolic stability data to a one-phase decay equation via nonlinear regression using GraphPad Prism (Version 10, GraphPad Software, Boston, MA, USA). The in vitro t1/2 was calculated from the equation t1/2 = ln(2)/k. Subsequently, the unbound intrinsic clearance (CLint,u) was calculated as follows: CLint,u = k/(fu,S9 × [S9]), where fu,S9 is the fraction unbound in the S9 incubation and [S9] is the S9 protein concentration.
(§5) The metabolic stability of KB-1517 and KB-1518 was evaluated by incubating the compounds (3 µM) with HLS9 and MLS9 fractions (1 mg/mL) in the presence of a comprehensive set of phase I and phase II cofactors (NADPH, UDPGA, PAPS, and GSH) for up to 60 min.

Data set [2] can be described thus: In vitro metabolic stability in pooled mouse liver S9 fraction. Particulars: male, ICR; for remaining at 1 h, 3 µM / half-life at 3 µM: pH 7.4, MLS9 1 mg/mL, 3 µM compound; for remaining at 1 h, 3 µM: cofactors NADPH, UDPGA, PAPS, GSH, 37 °C, read-out: % remaining after 60 min; for half-life at 3 µM: with cofactors, one-phase decay fit, read-out: in vitro t½ (estimated); for microsomal CLint at 3 µM: pH 7.4, MLS9, CLint,u = k/(fu,S9 × [S9]), read-out: CLint,u (unbound intrinsic clearance). On the procedure:
as §1, §2, §3, §4, §5

Data set [3] can be described thus: Plasma protein binding by equilibrium dialysis (RED), human plasma. The following applies: equilibrium dialysis 37 °C 4 h, mean ± SD (n = 3), read-out: fu (%) plasma protein binding. As to the method: (§6) The nonspecific binding of KB-1517 and KB-1518 in human and mouse plasma and liver S9 fractions was determined by equilibrium dialysis using a Rapid Equilibrium Device (RED) system (Thermo Fisher Scientific, Seoul, Republic of Korea).
(§7) Working solutions (200 μM for plasma, 60 μM for S9 fractions) were prepared in 40% aqueous acetonitrile. These were diluted 20-fold into either plasma or S9 incubation buffer (1 mg/mL protein, 200 mM Tris-HCl, 2 mM MgCl2, pH 7.4) to create the final dosing solutions.
(§8) For the dialysis, RED inserts (8 kDa MWCO) were used. Into each device, 200 μL of a dosing solution was added to the sample chamber, and 350 μL of PBS was added to the buffer chamber. The plate was sealed and incubated at 37 °C for 4 h on an orbital shaker (100 rpm) to allow the system to reach equilibrium.
(§9) Following incubation, 50 μL aliquots were taken from both chambers. To ensure analytical consistency, the samples were matrix-matched: the sample chamber aliquot was mixed with 50 μL of PBS, and the buffer chamber aliquot was mixed with 50 μL of the corresponding blank matrix (plasma or S9 incubation buffer). Proteins were then precipitated by adding 200 μL of ice-cold acetonitrile containing diclofenac (1 μg/mL) as IS. The samples were subsequently vortexed, sonicated for 5 min, and centrifuged at 4000× g for 20 min. Finally, a 100 μL aliquot of the resulting supernatant was diluted with 100 μL of HPLC-grade water in a 96-well plate for subsequent LC-MS/MS analysis.
(In general: In equilibrium dialysis only unbound substance equilibrates across the membrane.)

Data set [4] can be described thus: Plasma protein binding by equilibrium dialysis (RED), mouse plasma. Particulars: male, ICR, equilibrium dialysis 37 °C 4 h, mean ± SD (n = 3), read-out: fu (%) plasma protein binding. As to the method: as §6, §7, §8, §9
Data set [5] is described as follows: Binding in human liver S9 fraction by equilibrium dialysis (RED). The following applies: equilibrium dialysis 37 °C 4 h, mean ± SD (n = 3). As to the method: as §6, §7, §8, §9
Data set [6] in a line: Binding in mouse liver S9 fraction by equilibrium dialysis (RED). The following applies: equilibrium dialysis 37 °C 4 h, mean ± SD (n = 3). As to the method: as §6, §7, §8, §9

The term amount remaining denotes the share of the starting amount still present when the sample was taken. As for `CN(C)CCOc1nc2ccccc2c2oc(-c3ccc(C(F)(F)F)cc3)nc12` [KB-1518, N,N-dimethyl-2-((2-(4-(trifluoromethyl)phenyl)oxazolo[4,5-c]quinolin-4-yl)oxy)ethan-1-amine], in data set [1], the amount remaining at 1 h, 3 µM came to 74.2 ± 2.5%; the half-life at 3 µM was 113 min; the microsomal CLint at 3 µM was determined as 101 µL/min/mg. Further, in data set [2], the amount remaining at 1 h, 3 µM was 57.2 ± 1.3%; the half-life at 3 µM is 74.5 min; the microsomal CLint at 3 µM was determined as 216 µL/min/mg.
As to `CN(C)CCn1c(=O)c2nc(-c3ccc(C(F)(F)F)cc3)oc2c2ccccc21` [KB-1517, 5-(2-(dimethylamino)ethyl)-2-(4-(trifluoromethyl)phenyl)oxazolo[4,5-c]quinolin-4(5H)-one], the figures for the share remaining at 1 h, 3 µM in data set [1] and in data set [2] were 81.9 ± 0.7% and 67.2 ± 1%, respectively. Moreover, the half-life at 3 µM in data set [1] is 185 min; in data set [2], 183 min. For the same compound, the microsomal CLint at 3 µM in data set [1] was 19.6 µL/min/mg; in data set [2] it was 25 µL/min/mg. In addition, the fraction unbound at 4 h, 10 µM in data set [3] and in data set [4] was below 0.02 each time. The “fu (%) in liver S9 fractions” value amounted to 19.1 ± 0.7% in data set [5] (human liver S9, 1 mg/mL protein) and 15.1 ± 0.8% in data set [6] (mouse liver S9, 1 mg/mL protein). Moreover, the fraction unbound at 4 h, 3 µM in data set [5] (human, liver S9 fraction, pH 7.4, human liver S9, 1 mg/mL protein, read-out: fu (%) in liver S9 fractions) is below 0.2; in data set [6] (ICR, mouse, liver S9 fraction, pH 7.4, mouse liver S9, 1 mg/mL protein, read-out: fu (%) in liver S9 fractions) it was below 0.2.
